According to ChEMBL document CHEMBL5038646, “Structure-Activity Relationship Studies of New Sinapic Acid Phenethyl Ester Analogues Targeting the Biosynthesis of 5-Lipoxygenase Products: The Role of Phenolic Moiety, Ester Function, and Bioisosterism” (J Nat Prod, 2022):
Active and inactive are the calls of the source. No cut-off for these calls is given here.

Experiments:
[1] = biological target: T1, Polyunsaturated fatty acid 5-lipoxygenase (Homo sapiens) (UniProt P09917); assay: Inhibition of 5-LO in A23187-stimulated human HEK293 cells assessed as reduction in 5-LO product level at 1 uM preincubated for 5 mins followed by A23187, arachidonic acid addition and measured after 15 mins by RP-HPLC analysis relative to control; type: cell-based
T1 sequence (whole entry): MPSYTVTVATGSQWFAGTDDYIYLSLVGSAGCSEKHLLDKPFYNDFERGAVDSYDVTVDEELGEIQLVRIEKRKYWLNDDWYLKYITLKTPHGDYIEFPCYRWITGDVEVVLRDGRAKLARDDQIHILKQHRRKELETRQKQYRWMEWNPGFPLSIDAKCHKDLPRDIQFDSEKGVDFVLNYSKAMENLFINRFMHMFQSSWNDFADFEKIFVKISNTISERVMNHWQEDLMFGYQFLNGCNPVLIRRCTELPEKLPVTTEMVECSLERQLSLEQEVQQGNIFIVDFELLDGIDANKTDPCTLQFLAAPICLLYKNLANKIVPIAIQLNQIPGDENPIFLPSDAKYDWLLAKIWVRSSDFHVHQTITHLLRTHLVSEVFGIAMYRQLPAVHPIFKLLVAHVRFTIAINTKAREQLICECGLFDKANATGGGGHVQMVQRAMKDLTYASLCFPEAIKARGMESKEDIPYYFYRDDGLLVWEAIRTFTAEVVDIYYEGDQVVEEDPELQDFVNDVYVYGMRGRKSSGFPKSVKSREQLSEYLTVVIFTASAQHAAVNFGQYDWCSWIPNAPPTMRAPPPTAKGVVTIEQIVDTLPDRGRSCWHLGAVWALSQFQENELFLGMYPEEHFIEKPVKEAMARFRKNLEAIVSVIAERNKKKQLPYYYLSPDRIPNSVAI

[2] = biological target: T2, Polyunsaturated fatty acid 5-lipoxygenase (Homo sapiens, UniProt P09917); assay: Inhibition of 5-LO in thapsigargin stimulated human PMNL cells assessed as reduction in 5-LO product level preincubated for 5 mins followed by thapsigargin addition and measured after 15 mins by RP-HPLC analysis; type: cell-based
T2 sequence (P09917 whole entry): T1 sequence (whole entry)

| Compound | inhibition [1] | IC50 [2] [nM] |
| --- | --- | --- |
| COc1cc(/C=C/C(=O)OCCc2cccc(C(F)(F)F)c2)cc(OC)c1O | Active | 200 |
| COc1cc(/C=C/COCCCc2ccccc2)cc(OC)c1O | Active | 560 |
| COc1cc(/C=C/c2nc(CCc3ccccc3)no2)cc(OC)c1O | Active | 270 |
| COc1cc(C(=O)OCCc2ccccc2)cc(OC)c1O | inactive | – |
| COc1cccc(/C=C/C(=O)OCCc2ccccc2)c1OC | inactive | – |
| CC(c1cc2ccccc2s1)N(O)C(N)=O (stereo not given) | Active | – |
| COc1cc(/C=C/C(=O)OCCc2ccccc2)cc(OC)c1OC(C)=O | Active | 270 |
| COc1cc(/C=C/c2nc(Cc3ccccc3)no2)cc(OC)c1O | Active | 300 |
| COc1cc(/C=C/C(=O)CCc2ccccc2)cc(OC)c1O | Active | – |
| COc1cc(/C=C/COCc2ccccc2)cc(OC)c1O | Active | 1100 |
| COc1cc(CC(=O)OCCc2ccccc2)cc(OC)c1O | inactive | 1100 |
| COc1cc(/C=C/C(=O)NCCc2ccccc2)cc(OC)c1O | inactive | 960 |
| COc1cc(/C=C/C(=O)OCCc2ccccc2C(F)(F)F)cc(OC)c1O | Active | 350 |
| COc1ccc(OC)c(/C=C/C(=O)OCCc2ccccc2)c1 | inactive | – |
| COc1cc(/C=C/C(=O)OCCc2ccccc2)cc(OC)c1 | inactive | – |
| COc1cc(CCC(=O)OCCc2ccccc2)cc(OC)c1O | Active | 590 |
| COc1cc(CCC(=O)CCc2ccccc2)cc(OC)c1O | Active | 420 |
| COc1cc(/C=C/C(=O)OCCc2ccccc2)cc(OC)c1OC | inactive | – |

Results, then the molecule that gave them:

| inhibition [1] | IC50 [2] [nM] | Compound |
| --- | --- | --- |
| Active | 210 | COc1cccc(CCOC(=O)/C=C/c2cc(OC)c(O)c(OC)c2)c1 |
| Active | – | C#CCOC(=O)/C=C/c1cc(OC)c(O)c(OC)c1 |
| inactive | – | CCOC(=O)/C=C/c1cc(OC)c(O)c(OC)c1 |
| Active | 230 | COc1cc(/C=C/C(=O)OCCc2cccc(F)c2)cc(OC)c1O |
| Active | 240 | COc1cc(/C=C/C(=O)OCCc2ccccc2C)cc(OC)c1O |
| Active | – | COc1cc(/C=C/C(=O)OCCc2ccc(C)cc2)cc(OC)c1O |
| inactive | – | COc1cc(/C=C/C(=O)OC(C)C)cc(OC)c1O |
| Active | – | COc1ccc(CCOC(=O)/C=C/c2cc(OC)c(O)c(OC)c2)cc1 |
| Active | 340 | COc1cc(/C=C/C(=O)OCCCc2ccccc2)cc(OC)c1O |
| Active | 240 | COc1cc(/C=C/C(=O)OCCc2ccccc2F)cc(OC)c1O |
| Active | 200 | COc1cc(/C=C/C(=O)OCCc2cccc(C)c2)cc(OC)c1O |
| inactive | – | COC(=O)/C=C/c1cc(OC)c(O)c(OC)c1 |
| Active | – | COc1cc(/C=C/C(=O)OCCc2ccc(C(F)(F)F)cc2)cc(OC)c1O |
| Active | 250 | COc1ccccc1CCOC(=O)/C=C/c1cc(OC)c(O)c(OC)c1 |
| Active | – | COc1cc(/C=C/C(=O)OCCc2ccc(F)cc2)cc(OC)c1O |
| Active | 710 | CCCOC(=O)/C=C/c1cc(OC)c(O)c(OC)c1 |
| Active | – | COc1cc(/C=C/C(=O)OCCC2CCCCC2)cc(OC)c1O |
| Active | – | COc1cc(/C=C/C(=O)OCCc2ccccc2)cc(OC)c1O |
